Assay results from patent US8198317B2, “Methylenedioxy phenolic compounds and their use to treat disease” (The Ohio State University Research Foundation, priority 2008, dated 2012).

Legend:
[1] = system: Human Umbilical Vein Endothelial Cells (HUVECs); test: MTT cell toxicity assay; type: cell-based; settings: HUVEC; for cells displaying toxicity: 24 hours
Experimental: (§1) Cell Culture: All experiments were performed with cultured Human Umbilical Vein Endothelial Cells (HUVECs—Gibco, Invitrogen) and grown to confluence at 37° C. in a 5% CO2 humidified incubator, on tissue culture flasks previously coated with 1% gelatin in supplemented culture medium (M199 with 10% heat inactivated fetal calf serum, 100 U/ml penicillin, 100 μg/ml streptomycin, 2 mM glutamine, 10 mM HEPES, pH 7.4, heparin 12 I.U./ml, 1% retinal derived growth factor, Sigma). Following trypsin treatment, the cells were detached from the flasks and final mono-layers were prepared by seeding HUVECs on gelatin-precoated culture plates and then incubated for 24-48 h to ensure confluence. Cells up to the fourth passage were used for all experiments. Recombinant human TNF-α was purchased from R&D Systems (Minneapolis, Minn.).
Cell Toxicity Assays: Cellular toxicity was assessed by MTT [3-(4,5-dimethylthiazol-2-yl)-2,5-diphenyltetrazolium bromide] assay, a commercially available assay for assessment of cellular viability. INV-75 was added to HUVECs for 24 hours, and toxicity assays were performed at the end of this period. The MTT assay relies on the cellular reduction of positively charged tetrazolium salts to their intensely colored formazan product by mitochondrial dehydrogenases. Formazan production is decreased in the presence of impaired mitochondrial redox function and enhanced free radical production and may, therefore, be used as an index of cell viability responses to experimental interventions.
In short, after removing microtiter plates from the incubator, fresh medium containing a fixed volume of reconstituted MTT [3-(4,5-dimethylthiazol-2-yl)-2,5-diphenyltetrazlium bromide; final concentration: 0.5 mg/ml] was added to the wells; the plates were kept at 37° C. in a 5% CO2 environment for 2 h, and then the MTT solubilization solution provided by the manufacturer was added. The formazan product formed by the conversion of positively charged tetrazolium salts to the reduced state has low aqueous solubility and is present as purple crystals. Dissolving the formazan with a solubilization buffer (provided in kit) permits the convenient quantification of its formation. Optical density at OD 570 nm is then measured for each well on an absorbance plate reader. The within- and between-assay variability was 3 and 5%, respectively. Various concentrations of INV-75 was tested in cell based assays using the MTT assay, as described above. The concentrations tested ranged from 1 mM to 10 nM and the cells were exposed for over 24 hours in duration (FIG. 2).

ICAM-1 = test: ELISA of ICAM-1 release from TNF-α stimulated HUVEC; type: cell-based, human; settings: HUVEC pretreated 24 hours, then 2 ng/mL TNF-α for 6 hours
Experimental: as §1
Enzyme-Linked Immunosorbent Assay (ELISA): To measure the expression of cell surface adhesion molecules, ELISA technique was utilized (R and D Systems, Minneapolis, Minn.). […]
Enzyme-Linked Immunosorbent Assay (ELISA) and results: To measure the expression of cell surface adhesion molecules, ELISA technique was utilized. […] The expression of VCAM-1 and ICAM-1 were evaluated after TNF-α stimulation for 6 hours.

Cardiovascular Patient = test: Treatment of a patient with acute non-ST elevation myocardial infarction (Examples 11-12); type: in vivo, human; settings: 1.0 to 100 mg/kg in the catheterization laboratory
Experimental: A person presents with uncomfortable pressure, squeezing and pain in the center of their chest as well as in shoulders, arms, neck, jaw and back for over 4 hours. They also complain of shortness of breath. […] They are given aspirin, clopidogrel, nitrates and IV heparin and taken to the catheterization laboratory. After being evaluated with an angiography, they are diagnosed as suffering from a […] blockage in the left anterior descending coronary artery. The patient is administered a composition comprising an effective amount of 3,4-Methylenedioxy 6-nitro phenyl lipoate (INV-7465) (1.0 to 100 mg/kg) in the catheterization laboratory. Patient reports improvement in the chest pain, shortness of breath. They are again evaluated with an angiography to measure reduced plaque in their arteries.
A person presents with uncomfortable pressure, squeezing and pain in the center of their chest as well as in shoulders, arms, neck, jaw and back for over 4 hours. They also complain of shortness of breath. […] They are given aspirin, clopidogrel, nitrates and IV heparin and taken to the catheterization laboratory. After being evaluated with an angiography, they are diagnosed as suffering from a […] blockage in the left anterior descending coronary artery. […] They are again evaluated with an angiography to measure reduced plaque in their arteries.

p65 subunit of NF-κB = test: NF-κB translocation assay in HUVECs; type: cell-based, human; settings: HUVEC
Source text: NF-κB Translocation Assays: Cytokines such as TNF-α and interleukin-1 (IL-1) activate a pro-inflammatory response in endothelial cells. An early event in this response is nuclear translocation of the NF-κB transcription factor. This translocation causes the transcription of pro-inflammatory genes such as adhesion molecules VCAM-1, ICAM-1 and E-Selectin to be induced.
NF-κB is a heterodimer, composed of p65 and p50 subunits. Nuclear translocation is monitored by immunolocalization of the p65 subunit of NF-κB in fixed cells and is quantified by measuring the ratio of nuclear to cytoplasmic NF-κB signal. The nuclear translocation of NF-κB in stimulated cells such as primary human umbilical vein endothelial cells (HUVECs) therefore provides a readout that can be used to study the effects of bioactive compounds on the responsiveness of endothelium to pro-inflammatory stimuli. HUVECs were pre-treated with INV-75 at various concentrations (10 nM to 1 μM) or control (without [INV-75) for 24 hours. The media was then changed to one containing 10 ng/ml TNFα, or 1 μg/ml bovine serum albumin (vehicle) for 6 hours. p65 distribution was calculated as intensity in the cytoplasm and nucleus in regions of interest. At least 5 cells per high power field were used and at least 5 high power fields per concentration of the drug were used. The intensities were then expressed as the ratio of nuclear to cytoplasmic staining at least 5 cells per high power field. The data was then expressed as a ratio of the nuclear to cytoplasmic ratio without TNF-α.
In alternate experiments to assess NF-κB Activation extraction reagents were used to extract nuclear and cytoplasmic fraction from HUVEC cells previously treated with INV-75 at various concentrations for 6-24 hours before being stimulated with 2 ng/mL TNF-α for 6 hours. The expression of VCAM-1 and ICAM-1 were evaluated after TNF-α stimulation for 6 hours stimulation by western blot analysis. The p65 level in nuclear and cytoplasmic extracts were then analyzed by western blotting as described above.

| SMILES | cells displaying toxicity ([1]; 10 nM) | cells displaying toxicity ([1]; 100 nM) | cells displaying toxicity ([1]; 1 μM) | cells displaying toxicity ([1]; 10 μM) | cells displaying toxicity ([1]; 1 mM) | release of ICAM-1 (ICAM-1) | chest pain, shortness of breath (Cardiovascular Patient) | nuclear p65 expression (nuclear to cytoplasmic ratio) (p65 subunit of NF-κB; 24 hours pre-treatment, then TNF-α, n=3) | concentration from which translocation of p65 to the nucleus is inhibited (p65 subunit of NF-κB; TNF-α stimulated) | cell toxicity results compared with those of INV-75 ([1]; dose range of 10 nM to 100 μM) | ratio of nuclear to cytoplasmic staining of p65 (p65 subunit of NF-κB; TNF-α, at all the concentrations tested) |
| --- | --- | --- | --- | --- | --- | --- | --- | --- | --- | --- | --- |
| CC(=O)Oc1cc2c(cc1[N+](=O)[O-])OCO2 [INV-75, 3,4-methylenedioxy-6-nitrophenyl acetate] | 2% | 4% | 8% | 7% | 74% | marked reduction | improvement | marked inhibition | ≥ 10 nM | – | – |
| O=C(CCCCC1CCSS1)Oc1ccc2c(c1)OCO2 (stereo not shown) [INV-7065, 3,4-Methylenedioxy phenyl lipoate] | – | – | – | – | – | – | – | – | – | identical | – |
| O=C(CCCCC1CCSS1)Oc1cc2c(cc1[N+](=O)[O-])OCO2 (stereo not shown) [INV-7465, 3,4-Methylenedioxy 6-nitro phenyl lipoate] | – | – | – | – | – | marked reduction | improvement | – | – | – | decrease |
